{"source": "patent US20250346571A1", "about": "“BICYCLIC DERIVATIVE PARP INHIBITOR AND USE THEREOF” (XIZANG HAISCO PHARMACEUTICAL CO., LTD., priority 2022, published 2025)", "assay": "Pharmacokinetic test in rats", "format": "in vivo, SD rats", "description": "3.1 Experimental animal: male SD rats, about 220 g, 6-8 weeks old, 6 rats/compound, purchased from Chengdu Ddossy Experimental Animals Co., Ltd.\n3.2 Experimental design: on the day of the experiment, 30 SD rats were randomly grouped according to their body weights. The animals were fasted with water available for 12 to 14 h one day before the administration and were fed 4 h after the administration.\nBefore and after the administration, 0.15 ml of blood was taken from the orbit of the animals under isoflurane anesthesia and placed in an EDTAK2 centrifuge tube. The blood was centrifuged at 5000 rpm and 4° C. for 10 min to collect plasma. The blood collection time points for the intravenous administration group and intragastric administration group were 0, 5 min, 15 min, 30 min, 1 h, 2 h, 4 h, 6 h, 8 h and 24 h. The brain tissues were collected 24 hours after administration, rinsed with cold physiological saline to remove the residual blood on the surface, drained out and then homogenized. Before analysis and detection, all samples were stored at −80° C. The samples were analyzed quantitatively by LC-MS/MS.", "key": {"[1]": {"conditions": "male, SD, rat, iv, rats, i.v. 2.5 mg/kg, plasma"}}, "data": [{"smiles": "O=C(NC1CC1)c1ccc(N2CCN(Cc3ccc4nc(C(F)F)c(=O)[nH]c4c3F)CC2)c(F)n1", "note": "[Compound 12, N-cyclopropyl-5-(4-((2-(difluoromethyl)-5-fluoro-3-oxo-3,4-dihydroquinoxalin-6-yl)methyl)piperazin-1-yl)-6-fluoropicolinamide]", "values": [{"measurement": "pharmacokinetic characteristics in rats", "setting": "conclusion in words", "value": "good pharmacokinetic characteristics"}, {"measurement": "Kp at 24 h", "setting": "male, SD, rat, brain/plasma, intravenous, 2.5 mg/kg, rats, 24 h after administration, read-out: Brain/Plasma Ratio (24 h)", "value": 1.5}, {"measurement": "AUC(0-t)", "setting": "[1]", "value": "14500 ± 4760", "unit": "ng·h/mL"}, {"measurement": "clearance", "setting": "[1]", "value": "3.13 ± 1.2", "unit": "mL/min/kg"}, {"measurement": "Vd", "setting": "male, SD, rat, iv, rats, i.v. 2.5 mg/kg, plasma, read-out: Vdss", "value": "0.631 ± 0.12", "unit": "L/kg"}, {"measurement": "bioavailability", "setting": "male, SD, rat, plasma, po, rats, i.g. 10 mg/kg", "value": "≥ 98", "unit": "%"}, {"measurement": "AUC(0-t)", "setting": "male, SD, rat, po, rats, i.g. 10 mg/kg, plasma", "value": "63300 ± 19600", "unit": "ng·h/mL"}]}]}
